Results from paper PMC7507959, “A Structure-Based Mechanism for DNA Entry into the Cohesin Ring” (Molecular Cell, 2020).
Blank lines part the entries; values can stand above or below the molecule they belong to.

B2: Psc3 (natural protein, fission yeast (S. pombe), UniProt O13816 1-962, looked up)
chain: MSESVTTGSDDDGGDRESSPVMLSQSFDPMSSSSNSSSEENSDDDYEKTISSKKRHPRPNSKGVNVKRSRRNAIVEEDPQEEIFNNLFAFLLDQKVDTMDIAVSWFADYAKDNQSALANLINFILKCCGCNRAINVFDVQDQDSASATLSQIQLSVERTSTRDYPLNSKNLKFRNFRKRLTGLLSNFVSQLSIRNYLYNSTVFEDIMSWVVAMSSSTMRPIRHTATVFCLNIMTFLCEKSKELLNEHAIATKQLEKEEKRSRVNRNRINELNNSLGEIVKQQDTLTTYLNDYFDSVFVHRYRDVEPKIRVDCLQELGVWINTVPSIFFSGSYLRYLGWMLSDINTTVRLTVVKVLRKFFETDSFIGGLRHFSSRFKERILEMSCVDADIGVRVASIRLCNAMRTCGFLENSEILKVLKLILDINPRVQREAVLFLCKVVDESVNEKIDLWGEEDYILKAFSQTSLTTFSVHWIKFSQMCKLLEEVRLSYQSSFDYDTLLRIFQKNGNFITPITQALLNACEIDSIYQSWEDISNFVLFDNYTSTLKDPIDSILSFCKLNDFQESILLQLLSASIQTVCNNNFITPKTVHNKQAAETTNDQNKDKDLLYLNLLPYINSITERNSASPTLLHDSLRLLFSMDLTEMTDPQLSRHFELLINNLKKFFLTNNDLQIIQGCTILFLRLDSIPALKEDLKLLVTDICDQTVTEFLKNFGSFNIQDAVITKDEFVIFEACLTRIEGCTSLKDFSDYPEFDIIYERLVSLLSRVPNSYEDTLKFSAINTLQSLLFWFFLRKDNPADEEKKKDDETKVFNCLINIMNNDSSKILQLQAARTFLETVIMKEGVKASHYNDDNRVSEEHNFLKPQFLDALLKILEGWLYTYAKVGQFPFKRLTQASSPHTQISLDKNPLNRRLLEHVCCDLTSKLLIVVSLSNTITPEFSQQFCELRGHYGPKLSAIVDEFLN
notes: Psc3 (Scc3/STAG1/2), HEAT repeat subunit of fission yeast cohesin; Subunit of the wild-type tetramer; constructs from Murayama and Uhlmann, 2014; also called Psc3^Scc3/STAG1/2; Scc3; source: budding yeast (W303 background), galactose-induced, purified as part of the cohesin tetramer

What was measured:
[1] = molecular target: T1, fission yeast cohesin (Psm1-Psm3-Rad21-Psc3) with Mis4-Ssl3 loader (Schizosaccharomyces pombe, UniProt O42649+O94383); experiment: ATP hydrolysis, [gamma-33P]-ATP thin layer chromatography; format: biochemical; conditions: 0.25 mM ATP, Mis4-Ssl3, pBluescript dsDNA, 32 °C
T1 construct: tetramer expressed in budding yeast (W303); Mis4-Ssl3 expressed in fission yeast; FRET rows carry SNAP on Psm1 and CLIP on Psm3 C termini; with Cohesin subunit rad21; Cohesin subunit psc3; Sister chromatid cohesion protein mis4; MAU2 chromatid cohesion factor homolog ssl3
T1 sequence (O94383 whole entry, one chain of several): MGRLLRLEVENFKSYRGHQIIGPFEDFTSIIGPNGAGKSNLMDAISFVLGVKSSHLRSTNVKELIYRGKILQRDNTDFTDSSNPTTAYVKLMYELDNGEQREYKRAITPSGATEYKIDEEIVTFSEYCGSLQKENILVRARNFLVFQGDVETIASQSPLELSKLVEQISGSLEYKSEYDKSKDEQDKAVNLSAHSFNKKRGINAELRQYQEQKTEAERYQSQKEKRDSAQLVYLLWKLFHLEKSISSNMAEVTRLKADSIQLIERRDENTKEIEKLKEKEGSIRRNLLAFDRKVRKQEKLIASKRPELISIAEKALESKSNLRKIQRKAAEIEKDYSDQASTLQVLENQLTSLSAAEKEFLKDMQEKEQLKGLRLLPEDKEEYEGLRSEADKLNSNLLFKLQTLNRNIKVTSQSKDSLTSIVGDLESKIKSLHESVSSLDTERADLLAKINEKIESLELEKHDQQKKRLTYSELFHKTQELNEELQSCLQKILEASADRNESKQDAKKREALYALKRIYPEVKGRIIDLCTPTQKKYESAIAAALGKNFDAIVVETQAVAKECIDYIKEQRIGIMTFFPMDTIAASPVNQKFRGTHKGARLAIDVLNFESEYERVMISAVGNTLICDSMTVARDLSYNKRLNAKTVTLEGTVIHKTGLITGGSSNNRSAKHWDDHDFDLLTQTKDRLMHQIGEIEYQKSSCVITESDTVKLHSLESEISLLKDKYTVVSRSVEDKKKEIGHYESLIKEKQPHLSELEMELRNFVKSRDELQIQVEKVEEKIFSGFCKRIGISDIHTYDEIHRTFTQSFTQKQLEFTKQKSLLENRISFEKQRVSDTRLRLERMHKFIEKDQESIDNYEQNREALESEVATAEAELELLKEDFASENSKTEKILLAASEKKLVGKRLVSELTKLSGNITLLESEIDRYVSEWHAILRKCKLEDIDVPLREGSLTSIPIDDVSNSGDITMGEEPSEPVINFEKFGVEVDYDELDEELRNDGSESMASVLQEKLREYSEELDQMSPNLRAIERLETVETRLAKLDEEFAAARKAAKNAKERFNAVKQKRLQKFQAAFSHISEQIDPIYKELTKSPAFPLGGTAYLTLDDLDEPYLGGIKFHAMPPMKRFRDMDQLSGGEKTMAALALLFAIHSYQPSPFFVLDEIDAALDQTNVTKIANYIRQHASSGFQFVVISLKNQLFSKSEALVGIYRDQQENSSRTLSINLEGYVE
T1 sequence (O42649 whole entry, one chain of several): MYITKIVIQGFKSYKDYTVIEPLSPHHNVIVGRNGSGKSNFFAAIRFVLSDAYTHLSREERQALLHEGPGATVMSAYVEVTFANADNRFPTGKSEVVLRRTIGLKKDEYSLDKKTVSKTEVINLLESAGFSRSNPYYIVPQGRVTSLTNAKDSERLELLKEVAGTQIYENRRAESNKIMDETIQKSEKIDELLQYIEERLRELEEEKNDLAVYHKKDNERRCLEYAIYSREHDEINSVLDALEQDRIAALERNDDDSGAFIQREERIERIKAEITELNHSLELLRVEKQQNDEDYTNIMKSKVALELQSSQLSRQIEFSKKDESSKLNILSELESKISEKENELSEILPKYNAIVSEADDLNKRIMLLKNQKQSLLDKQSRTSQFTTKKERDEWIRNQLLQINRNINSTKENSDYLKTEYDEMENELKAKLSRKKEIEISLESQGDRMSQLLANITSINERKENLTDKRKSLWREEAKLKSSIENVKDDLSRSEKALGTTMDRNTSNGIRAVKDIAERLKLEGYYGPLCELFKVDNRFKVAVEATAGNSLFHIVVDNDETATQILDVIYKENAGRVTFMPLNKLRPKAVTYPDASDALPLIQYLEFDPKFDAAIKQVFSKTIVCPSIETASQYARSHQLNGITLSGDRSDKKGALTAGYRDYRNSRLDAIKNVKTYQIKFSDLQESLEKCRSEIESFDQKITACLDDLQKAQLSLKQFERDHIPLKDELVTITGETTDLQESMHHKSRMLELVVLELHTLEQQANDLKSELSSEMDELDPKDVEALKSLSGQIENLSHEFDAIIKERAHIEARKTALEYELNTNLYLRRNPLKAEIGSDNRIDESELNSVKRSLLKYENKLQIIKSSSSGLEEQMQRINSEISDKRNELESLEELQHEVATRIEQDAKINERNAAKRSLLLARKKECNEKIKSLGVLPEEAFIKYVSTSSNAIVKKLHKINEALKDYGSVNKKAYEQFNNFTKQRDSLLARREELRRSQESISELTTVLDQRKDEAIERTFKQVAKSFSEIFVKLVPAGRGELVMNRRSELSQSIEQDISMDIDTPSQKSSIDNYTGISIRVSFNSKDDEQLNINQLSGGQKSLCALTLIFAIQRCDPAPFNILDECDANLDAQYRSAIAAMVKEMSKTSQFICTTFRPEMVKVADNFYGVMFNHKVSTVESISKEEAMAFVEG
T1 sequence (P30776 whole entry partner, one chain of several): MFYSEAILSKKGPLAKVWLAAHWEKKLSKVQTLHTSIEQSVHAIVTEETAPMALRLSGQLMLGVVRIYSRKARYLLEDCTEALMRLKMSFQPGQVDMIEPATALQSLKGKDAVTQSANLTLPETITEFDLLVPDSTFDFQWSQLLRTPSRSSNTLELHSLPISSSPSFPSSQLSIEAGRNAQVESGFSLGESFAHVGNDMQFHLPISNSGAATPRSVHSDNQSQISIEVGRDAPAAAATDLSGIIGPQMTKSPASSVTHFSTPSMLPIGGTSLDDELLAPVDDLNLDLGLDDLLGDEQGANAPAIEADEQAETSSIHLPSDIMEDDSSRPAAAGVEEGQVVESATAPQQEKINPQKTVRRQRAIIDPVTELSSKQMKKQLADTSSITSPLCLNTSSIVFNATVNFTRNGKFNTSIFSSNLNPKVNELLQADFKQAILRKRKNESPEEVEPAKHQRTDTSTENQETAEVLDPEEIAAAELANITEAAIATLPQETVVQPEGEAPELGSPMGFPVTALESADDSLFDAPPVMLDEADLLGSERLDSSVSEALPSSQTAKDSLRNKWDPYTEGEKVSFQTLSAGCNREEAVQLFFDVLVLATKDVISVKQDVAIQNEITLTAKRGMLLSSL
T1 sequence (Q09725 whole entry partner, one chain of several): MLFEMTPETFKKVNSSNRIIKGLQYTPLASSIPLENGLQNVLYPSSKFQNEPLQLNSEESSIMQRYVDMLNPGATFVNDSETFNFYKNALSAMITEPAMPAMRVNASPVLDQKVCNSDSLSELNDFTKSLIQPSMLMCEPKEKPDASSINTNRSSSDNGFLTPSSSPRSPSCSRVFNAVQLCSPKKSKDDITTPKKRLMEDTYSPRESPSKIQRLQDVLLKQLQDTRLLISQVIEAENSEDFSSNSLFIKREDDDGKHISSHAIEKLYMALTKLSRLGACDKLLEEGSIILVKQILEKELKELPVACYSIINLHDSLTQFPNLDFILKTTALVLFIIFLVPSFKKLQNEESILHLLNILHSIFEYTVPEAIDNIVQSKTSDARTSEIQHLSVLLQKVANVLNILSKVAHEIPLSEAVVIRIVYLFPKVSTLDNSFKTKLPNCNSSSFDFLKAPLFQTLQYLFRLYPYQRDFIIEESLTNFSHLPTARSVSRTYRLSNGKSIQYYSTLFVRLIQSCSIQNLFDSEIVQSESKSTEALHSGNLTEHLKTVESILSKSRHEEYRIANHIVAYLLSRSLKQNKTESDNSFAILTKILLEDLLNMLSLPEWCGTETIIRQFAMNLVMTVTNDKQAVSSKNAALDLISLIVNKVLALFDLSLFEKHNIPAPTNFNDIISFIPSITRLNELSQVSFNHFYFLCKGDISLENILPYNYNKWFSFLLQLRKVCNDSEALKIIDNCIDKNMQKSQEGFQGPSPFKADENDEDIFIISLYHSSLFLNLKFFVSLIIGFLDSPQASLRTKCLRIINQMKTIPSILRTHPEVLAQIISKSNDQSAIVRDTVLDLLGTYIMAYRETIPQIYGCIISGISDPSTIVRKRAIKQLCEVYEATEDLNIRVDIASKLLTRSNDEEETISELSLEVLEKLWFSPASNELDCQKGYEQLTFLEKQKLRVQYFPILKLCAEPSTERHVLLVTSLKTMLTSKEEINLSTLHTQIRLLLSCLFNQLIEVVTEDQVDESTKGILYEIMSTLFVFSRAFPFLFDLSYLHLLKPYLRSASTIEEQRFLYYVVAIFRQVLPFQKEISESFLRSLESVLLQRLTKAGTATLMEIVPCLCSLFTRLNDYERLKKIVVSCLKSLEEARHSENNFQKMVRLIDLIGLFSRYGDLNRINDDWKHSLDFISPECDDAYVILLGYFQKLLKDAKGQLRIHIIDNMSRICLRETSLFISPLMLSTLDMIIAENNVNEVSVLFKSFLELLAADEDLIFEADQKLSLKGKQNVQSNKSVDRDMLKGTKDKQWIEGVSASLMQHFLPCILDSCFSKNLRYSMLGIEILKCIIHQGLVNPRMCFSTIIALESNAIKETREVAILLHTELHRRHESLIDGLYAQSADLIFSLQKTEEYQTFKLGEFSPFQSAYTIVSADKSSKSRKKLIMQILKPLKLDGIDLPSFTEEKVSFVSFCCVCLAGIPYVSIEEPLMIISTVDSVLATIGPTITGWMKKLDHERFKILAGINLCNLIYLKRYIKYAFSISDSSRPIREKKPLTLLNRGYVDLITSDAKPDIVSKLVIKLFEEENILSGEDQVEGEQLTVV

[2] = molecular target: T2, N17-cohesin with Mis4-Ssl3 loader (Schizosaccharomyces pombe, UniProt O42649+O94383); experiment: as above; format: biochemical; conditions: 0.25 mM ATP, Mis4-Ssl3, pBluescript dsDNA, 32 °C
T2 construct: gene psm1; as P1 but Rad21 lacks amino acids 1-17 (residues 18-646); expressed in budding yeast; with Cohesin subunit rad21; Cohesin subunit psc3; Sister chromatid cohesion protein mis4; MAU2 chromatid cohesion factor homolog ssl3

[3] = molecular target: T3, fission yeast cohesin (Psm1-Psm3-Rad21-Psc3) with Mis4-Ssl3 loader (Schizosaccharomyces pombe, UniProt O42649+O94383, O42649:E1126Q/O94383:E1161Q); experiment: FRET between SNAP/CLIP-labelled ATPase heads; format: binding; conditions: hydrolysis-deficient EQ-cohesin; 0.5 mM ATP, Mis4-Ssl3, DNA, 1 mM MgCl2, pH 7.5, 32 °C
T3 construct: tetramer expressed in budding yeast (W303); Mis4-Ssl3 expressed in fission yeast; FRET rows carry SNAP on Psm1 and CLIP on Psm3 C termini; with Cohesin subunit rad21; Cohesin subunit psc3; Sister chromatid cohesion protein mis4; MAU2 chromatid cohesion factor homolog ssl3
T3 sequence (O94383 whole entry E1161Q, one chain of several): as the sequence (O94383 whole entry, one chain of several) above, with E1161Q counted along it
T3 sequence (O42649 whole entry E1126Q, one chain of several): as the sequence (O42649 whole entry, one chain of several) above, with E1126Q counted along it
T3 sequence (P30776 whole entry partner, one chain of several): as the sequence (P30776 whole entry partner, one chain of several) above
T3 sequence (Q09725 whole entry partner, one chain of several): as the sequence (Q09725 whole entry partner, one chain of several) above

Psc3 = molecular target: B2; experiment: cross-linking; SDA (NHS-diazirine) UV crosslinking with mass spectrometry (CLMS), gripping state: 200 nM cohesin, 200 nM Mis4-Ssl3, 200 nM 125 bp dsDNA, 0.5 mM ADP and 0.5 mM BeSO4 + 10 mM NaF, 32°C 20 min; conditions: both partners purified
Mis4 = molecular target: T4, Mis4 (fission yeast (S. pombe), UniProt Q09725 1-1587); experiment: as above; conditions: both partners purified
T4 construct: Mis4 (Scc2/NIPBL), fission yeast cohesin loader; Used as the Mis4-Ssl3 complex; construct from Murayama and Uhlmann, 2014; also called Mis4^Scc2/NIPBL; cohesin loader; source: fission yeast, thiamine-repressible expression, purified as Mis4-Ssl3
T4 sequence (Q09725 whole entry): as the sequence (Q09725 whole entry partner, one chain of several) above

Molecule: Nc1ncnc2c1ncn2[C@@H]1O[C@H](COP(=O)(O)OP(=O)(O)OP(=O)(O)O)[C@@H](O)[C@H]1O [ATP]
ATP hydrolysis, [gamma-33P]-ATP thin layer chromatography [1]: loader-stimulated ATP hydrolysis were equal when using wild-type or N17-cohesin | ATP hydrolysis, [gamma-33P]-ATP thin layer chromatography [2]: loader-stimulated ATP hydrolysis were equal when using wild-type or N17-cohesin | FRET between SNAP/CLIP-labelled ATPase heads [3]: the presence of all three components—the loader, DNA, and ATP—resulted in a marked FRET increase

binding result (Psc3): binds
B1: Ssl3 (natural protein, fission yeast (S. pombe), UniProt O94459 1-559, looked up)
chain: MTGLNETDARILVTSRHLFLWPLAETYFKNAEKVLQDCGVCDSFGRLLSTGLQCLYSVLMDTKMEPRVELLTRKRICEVLLSHTVEYADVEAILNRALIIAEQHNLTEYKFSLQLLLSRVFCRTSPKAAKVLLTRCVREAEEYAKVAEIYHSNNQSNPHRWVYEFLLATLEFQNVSQVANSIHNYANHHKHQHLQLLAMILNQSLPMDEISTDSDQISILCLVTQIAQCLRKGEILLAREILPKIHSKLESETFVWPSSYIDFFIDDTSKISIKWMSINQLYLLIYLISGFCYISDSTSGRASRFLQEGLRITGDFKHQERCVLEYLESQKWINNITKDMKYYLIATYLSRSRLSKAERILQSTEDDQTGFLGILKGMYLQKRGDLKKAEVHYRETAKNFSFRTDTFIISTLNLINILEDSAAASRCLESIEPLCNKHEKKIFKLWLLVLKVIREGPQVHQSNVLPRVIQQSSEYANTQLQYISLTELSERFGKLEHAEKMAISALELAKKSKDELWCLISGRILEDFYRSVQKYDKMRQQALENSAYSKLIEDIYSFV
notes: Ssl3 (Scc4/MAU2), small subunit of the fission yeast cohesin loader; Used as the Mis4-Ssl3 complex; construct (plasmid pSsl3) from Murayama and Uhlmann, 2014; also called Ssl3^Scc4/MAU2; Scc4; source: fission yeast, thiamine-repressible expression, purified as Mis4-Ssl3

Molecule: B2
binding result (Mis4): binds
